Key:
[1] = test system: SW620, human metastatic colon cancer cell line; test: MTT assay, cytotoxicity in SW620; format: cell-based; settings: for IC50: MTT, 72 h, mean ± SD; for SW620 SI (selectivity index): SI = IC50 HaCaT / IC50 SW620
Experimental: (§1) The human cell lines SW480 (primary colon cancer), SW620 (lymph node metastatic colon cancer from the same patient as primary cancer cells), PC3 (metastatic prostate cancer), and HaCaT (immortalized keratinocytes) were obtained from the American Type Culture Collection (ATCC, Rockville, USA). The SW480 and SW620 cells were grown in MEM (ThermoSci, USA), PC3 in RPMI 1640, and HaCaT in DMEM High Glucose (Biowest SAS, France) supplemented with 10% foetal bovine serum (FBS), HEPES (20 mM), and antibiotics (100 U mL^–1 of penicillin and 100 μg mL^–1 of streptomycin). The cells were incubated in a humidified incubator at 37 °C/5% CO2, until 80–90% confluence was reached.
(§2) The cell viability was assessed by using of MTT salt [3-(4,5-dimethylthiazol-2-yl)-2,5-diphenyltetrazolium bromide] converted by mitochondrial dehydrogenase, occurring in living cells. The cells were seeded in 96-well plates at a density of 1 × 10^4 cells per well and allowed to adhere for 24 h at 37 °C in a CO2 humidified incubator. Then, the medium was removed and a fresh medium with various concentrations of tested compounds (from 10 to 120 μM) was added. The untreated cells were used as the control.
(§3) After 72 h incubation, the medium was replaced with 200 μL per well of free serum medium containing 0.5 mg mL^–1 MTT and incubated for 4 h at 37 °C in a CO2 humidified incubator. Subsequently, the medium was removed and dimethyl sulfoxide with isopropanol (1:1) was added to dissolve the formazan crystals. The optical density was measured using a UVM 340 reader (ASYS Hitech GmbH, Austria) at a wavelength of 570 nm. The experiments were repeated three times. The cell viability was calculated as the percent of MTT reduced in treated cells versus control cells (untreated cells). The number of viable cells cultured without tested compounds was assumed as 100%. The decreased relative MTT level indicates decreased cell viability. The IC50 values were estimated using CompuSyn version 1.0.

[2] = test system: SW480, human primary colon cancer cell line; test: MTT assay, cytotoxicity in SW480; format: cell-based; settings: for IC50: MTT, 72 h, mean ± SD; for SW480 SI (selectivity index): SI = IC50 HaCaT / IC50 SW480
Experimental: as §1, §2, §3

[3] = test system: HaCaT, human immortalized keratinocyte cell line; test: MTT assay, cytotoxicity in HaCaT; format: cell-based; settings: 72 h, mean ± SD, nontumor cells
Experimental: as §1, §2, §3

[4] = test system: PC3, human prostate cancer cell line; test: MTT assay, cytotoxicity in PC3; format: cell-based; settings: for IC50: MTT, 72 h, mean ± SD; for PC3 SI (selectivity index): SI = IC50 HaCaT / IC50 PC3
Experimental: as §1, §2, §3

[5] = test system: three cancer cell lines (SW480, SW620, PC3); test: MTT assay, span over the three cancer cell lines; format: cell-based, human; settings: for IC50: Homo sapiens, MTT, 72 h; for SI, span over three cancer cell lines: SI = IC50 HaCaT / IC50 cancer cell line
Experimental: as §1, §2, §3

PC3 cells = test: Annexin V-FITC/PI binding assay (flow cytometry) in PC3; format: cell-based, human; settings: IC50 concentration, 72 h
Experimental: The SW480, SW620, PC3, and HaCaT cells were cultured and harvested under the conditions mentioned in the Section 4.5 and seeded in 12-well plates (1 × 10^5 cells per well). […] The apoptotic effect was performed using the Annexin V-FITC/propidium iodide (PI) apoptosis assay kit (Becton Dickinson, Pharmingen), according to the manufacturer’s instructions, and analyzed by flow cytometry (Becton Dickinson). The cells which were Annexin V-FITC-positive and PI-negative were identified as early apoptotic and both Annexin V-FITC- and PI-positive as late apoptotic or necrotic. The experiment was repeated three times.

SMILES | IC50 ([1]; Homo sapiens, SW-620) [µM] | SW620 SI (selectivity index) [1] | IC50 ([2]; Homo sapiens, SW480) [µM] | SW480 SI (selectivity index) [2] | IC50 ([3]; Homo sapiens, HaCaT) [µM] | IC50 ([4]; Homo sapiens) [µM] | PC3 SI (selectivity index) [4] | IC50 [1] [µM] | IC50 [2] [µM] | IC50 [3] [µM] | IC50 [4] [µM] | IC50 [5] [µM] | SI, span over three cancer cell lines [5] | percentage of late apoptotic PC3 cells (PC3 cells) [%] | percentage of necrotic PC3 cells (PC3 cells) [%]
O=c1cc(CO)occ1O [KOJ, kojic acid, reference compound] | 94 ± 4 | 2.4 | 119 ± 2.8 | 1.9 | 225 ± 7.1 | 56 ± 3.3 | 4.0 |  |  |  |  |  |  |  | 
O=c1cc(CCl)occ1O [Compound 4] | 20 ± 2.6 | 2.0 | 28 ± 1.8 | 1.4 | 39 ± 0.45 | 20 ± 1.5 | 2.0 |  |  |  |  |  |  |  | 
O=c1[nH]c(=O)n([C@H]2C[C@H](O)[C@@H](CO)O2)cc1F [FLO, floxuridine, reference compound] | 8.8 ± 0.69 | 4.3 | 16 ± 1.2 | 2.4 | 38 ± 0.72 | 14 ± 0.57 | 2.7 |  |  |  |  |  |  |  | 
CC[C@@H](C(=O)[C@@H](C)[C@@H](O)[C@H](C)CCc1ccc(C)c(O)c1C(=O)OCCOCCn1cc(F)c(=O)[nH]c1=O)[C@H]1O[C@](CC)([C@H]2CC[C@](O)(CC)[C@H](C)O2)C[C@@H]1C [Compound 10, LAS–5-Fluorouracil Conjugate] | 11 ± 1.4 | 1.1 | 22 ± 2.2 | 0.5 | 12 ± 0.59 | 12 ± 0.13 | 1.0 |  |  |  |  |  |  |  | 
BrCCC[P+](c1ccccc1)(c1ccccc1)c1ccccc1.[Br-] [TPP, (3-bromopropyl)triphenylphosphonium bromide, reference compound] | 39 ± 2.5 | 0.7 | 46 ± 1.1 | 0.6 | 26 ± 0.96 | 31 ± 0.98 | 0.8 |  |  |  |  |  |  |  | 
O=C(CCCCCBr)[c-]1cccc1.[Fe+2].c1cc[cH-]c1 [FER, (6-bromo-1-oxohexyl)ferrocene, reference compound] |  | 2.1 |  | 1.9 |  |  | 1.9 | 55 ± 0.7 | 61 ± 0.98 | 115 ± 0.95 | 59 ± 0.78 |  |  |  | 
CC[C@@H](C(=O)[C@@H](C)[C@@H](O)[C@H](C)CCc1ccc(C)c(O)c1C(=O)OCCCCCCBr)[C@H]1O[C@](CC)([C@H]2CC[C@](O)(CC)[C@H](C)O2)C[C@@H]1C [Compound 5] | 34 ± 1.4 | 1.5 | 42 ± 1.6 | 1.2 | 50 ± 0.34 | 18 ± 0.98 | 2.8 |  |  |  |  |  |  |  | 
Nc1ccn([C@@H]2O[C@H](CO)[C@@H](O)C2(F)F)c(=O)n1 [GEM, gemcitabine, reference compound] | 3.4 ± 0.65 | 0.4 | 1.2 ± 0.05 | 1.3 | 1.5 ± 0.05 | 0.14 ± 0.02 | 11 |  |  |  |  | 0.14 to 3.4 | 0.4–11 |  | 
C=C(C)[C@@H]1CC[C@]2(C(=O)OCCCCCCOC(=O)c3c(CC[C@@H](C)[C@H](O)[C@H](C)C(=O)[C@H](CC)[C@H]4O[C@](CC)([C@H]5CC[C@](O)(CC)[C@H](C)O5)C[C@@H]4C)ccc(C)c3O)CC[C@]3(C)[C@H](CC[C@@H]4[C@@]5(C)CC[C@H](O)C(C)(C)[C@@H]5CC[C@]43C)[C@@H]12 [Compound 6, LAS–Betulinic Acid Conjugate] | 40 ± 2.1 | 0.4 | 320 ± 8.8 | 0.05 | 15 ± 0.59 | 200 ± 1.8 | 0.1 |  |  |  |  |  |  |  | 
COc1cccc2c1C(=O)c1c(O)c3c(c(O)c1C2=O)C[C@@](O)(C(=O)CO)C[C@@H]3O[C@H]1C[C@H](N)[C@H](O)[C@H](C)O1 [DOX, doxorubicin, reference compound] |  |  | 0.75 ± 0.1 |  | 0.29 ± 0.1 | 0.59 ± 0.02 |  |  |  |  |  |  |  |  | 
CC[C@@H](C(=O)[C@@H](C)[C@@H](O)[C@H](C)CCc1ccc(C)c(O)c1C(=O)OCCCCCCn1cc(F)c(=O)[nH]c1=O)[C@H]1O[C@](CC)([C@H]2CC[C@](O)(CC)[C@H](C)O2)C[C@@H]1C [Compound 9, LAS–5-Fluorouracil Conjugate] | 55 ± 1.5 | 0.8 | 66 ± 2.5 | 0.7 | 44 ± 1.8 | 36 ± 0.79 | 1.2 |  |  |  |  |  |  |  | 
CC[C@@H](C(=O)[C@@H](C)[C@@H](O)[C@H](C)CCc1ccc(C)c(O)c1C(=O)OCCCCn1cc(F)c(=O)[nH]c1=O)[C@H]1O[C@](CC)([C@H]2CC[C@](O)(CC)[C@H](C)O2)C[C@@H]1C [Compound 8, LAS–5-Fluorouracil Conjugate] | 14 ± 1 | 2.4 | 67 ± 1.2 | 0.5 | 33 ± 3.4 | 3.6 ± 0.08 | 9.2 |  |  |  |  |  |  | 33.16 | 34.88
O=c1[nH]c(=O)n(CCCCBr)cc1F [Compound 1] | 75 ± 2.7 | 2.4 | 36 ± 0.79 | 5.0 | 179 ± 4.3 | 308 ± 5.2 | 0.6 |  |  |  |  |  |  |  | 
C=C(C)[C@@H]1CC[C@]2(C(=O)O)CC[C@]3(C)[C@H](CC[C@@H]4[C@@]5(C)CC[C@H](O)C(C)(C)[C@@H]5CC[C@]43C)[C@@H]12 [BET, betulinic acid, reference compound] | 65 ± 3.7 | 1.7 | 105 ± 7 | 1.0 | 108 ± 1.3 | 71 ± 5.9 | 1.5 |  |  |  |  |  |  |  | 
O=c1[nH]c(=O)n(CCOCCBr)cc1F [Compound 3, 1-(2-(2-Bromoethoxy)ethyl)-5-fluorouracil] | 47 ± 3.8 | 2.2 | 55 ± 3.5 | 1.9 | 104 ± 2.2 | 42 ± 2.3 | 2.5 |  |  |  |  |  |  |  | 
O=c1[nH]c(=O)n(CCCCCCBr)cc1F [Compound 2, 1-(6-Bromohexyl)-5-fluorouracil] | 36 ± 0.83 | 6.2 | 103 ± 3.4 | 2.2 | 224 ± 2.8 | 3.1 ± 0.15 | 73 |  |  |  |  |  |  |  | 
CC[C@@H](C(=O)[C@@H](C)[C@@H](O)[C@H](C)CCc1ccc(C)c(O)c1C(=O)O)[C@H]1O[C@](CC)([C@H]2CC[C@](O)(CC)[C@H](C)O2)C[C@@H]1C [LAS, lasalocid] | 6.1 ± 0.28 | 2.6 | 7.2 ± 0.79 | 2.2 | 16 ± 1.9 | 1.4 ± 0.05 | 11 |  |  |  |  | 1.4 to 7.2 | 2.2–11 |  | 
CC[C@@H](C(=O)[C@@H](C)[C@@H](O)[C@H](C)CCc1ccc(C)c(O)c1C(=O)OC[C@H]1O[C@@H](n2cc(F)c(=O)[nH]c2=O)C[C@@H]1O)[C@H]1O[C@](CC)([C@H]2CC[C@](O)(CC)[C@H](C)O2)C[C@@H]1C [Compound 11, LAS–Floxuridine Conjugate] | 19 ± 2 | 2.6 | 31 ± 1.2 | 1.6 | 50 ± 0.59 | 13 ± 1.9 | 3.8 |  |  |  |  |  |  |  | 
O=c1[nH]cc(F)c(=O)[nH]1 [5FU, 5-fluorouracil, reference compound] | 39 ± 1.2 | 1.3 | 43 ± 3.1 | 1.2 | 52 ± 1.6 | 11 ± 0.97 | 4.7 |  |  |  |  |  |  |  | 
